According to patent US12590062B2, “PD-1/PD-L1 inhibitors” (Gilead Sciences, Inc., priority 2017, dated 2026):

Columns and labels:
[1] = molecular target: T1, interaction between the recombinant extracellular domain (ECD) of PD-1 and native cell-bound PD-L1 (Homo sapiens, UniProt Q9NZQ7); assay: CHO/PD-L1 cell capture assay; assay type: cell-based; conditions: CHO cells overexpressing PD-L1, pre-incubated 1 hr with compound, captured on biotinylated Fc-PD-1 coated plates, 75 min at room temperature
T1 construct: expressed in transfected cells
Description: EC50-CHO/PD-L1-Capture Assay:
Compounds were tested in a cell capture assay to determine if they can specifically block the interaction between the recombinant extracellular domain (ECD) of PD-1 and native cell-bound PD-L1. Binding affinity of stable CHO cells overexpressing PD-L1 with its cognate recombinant ligand coated on plates was measured by counting the number of ‘captured’ cells. High-capacity streptavidin- coated plates were incubated with biotylated-Fc-PD-1 for 2 hours in PBS. Unbound ligand was washed out. CHO-PD-L1 cells (resuspended in PBS pH 7.4, 0.5 mM EDTA, and 2% bovine serum albumin) were pre-incubated for 1 hr with compound, dispensed into each PD-1 ECD coated well and then incubated for 75 min at room temperature. To stop the capture assay, a fixative/staining solution (final concentrations are 1.3% glutaraldehyde and 1.67 μM Draq5) was gently added to the cells and incubated for 2 hrs at room temperature. Unbound cells were then washed out and ‘captured’ cells were enumerated using a high-content microscopy system. EC50 values were calculated from the fit of the dose-response curves to a four-parameter equation. Representative data are shown below in Table 2.

[2] = molecular target: T2, PD-1/PD-L1 interaction (Homo sapiens, UniProt Q9NZQ7); assay: PD-1/PD-L1 NFAT reporter co-culture assay; assay type: cell-based; conditions: Jurkat PD-1 NFAT-luciferase cells co-cultured with aAPC-PD-L1 CHO cells, 6 hrs at 37° C.; read-out: EC50 NFAT Luciferase
T2 construct: expressed in transfected cells; host or cells: CHO cells (aAPC-PD-L1) co-cultured with Jurkat cells overexpressing PD-1 and an NFAT-luciferase reporter
In short: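 Jurkat cells overexpressing PD-1 with NFAT-luciferase mixed with compounds and plated onto CHO aAPCs expressing anti-CD3 and PD-L1, RPMI with 2% FBS. Co-culture 6 h at 37 °C; luminescence read with ONE-Glo. EC50 from four-parameter fit.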

T1 sequence (Q9NZQ7 19-290): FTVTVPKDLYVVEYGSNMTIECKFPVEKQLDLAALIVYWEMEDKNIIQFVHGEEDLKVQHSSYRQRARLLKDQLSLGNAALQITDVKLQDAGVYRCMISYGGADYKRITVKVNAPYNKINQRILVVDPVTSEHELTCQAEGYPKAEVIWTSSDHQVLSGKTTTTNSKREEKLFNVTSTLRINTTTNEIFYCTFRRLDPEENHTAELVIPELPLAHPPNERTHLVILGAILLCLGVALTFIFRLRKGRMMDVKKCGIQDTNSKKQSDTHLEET
T2 sequence (Q9NZQ7 19-290): as above

Structure (SMILES)	EC50 [1]	EC50 [2]
COc1nc(OCc2cccc(-c3cccc(COc4nc(OC)c(CNC[C@H](O)CC(=O)O)cc4Cl)c3C)c2C)c(Cl)cc1CNC[C@H](O)CC(=O)O [Example 49, (3R,3′R)-4,4′-((((((2,2′-dimethyl-[1,1′-biphenyl]-3,3′-diyl)bis(methylene))bis(oxy))bis(5-chloro-2-methoxypyridine-6,3-diyl))bis(methylene))bis(azanediyl))bis(3-hydroxybutanoic acid)]	0.123 µM	0.274 µM
COc1nc(OCc2cccc(-c3cccc(COc4nc(OC)c(CNC[C@H](O)CC(=O)O)cc4C4CC4)c3C)c2C)c(C2CC2)cc1CNC[C@H](O)CC(=O)O [Example 54, (3R,3′R)-4,4′-((((((2,2′-dimethyl-[1,1′-biphenyl]-3,3′-diyl)bis(methylene))bis(oxy))bis(5-cyclopropyl-2-methoxypyridine-6,3-diyl))bis(methylene))bis(azanediyl))bis(3-hydroxybutanoic acid)]	0.233 µM	0.997 µM
COc1nc(OCc2cccc(-c3cccc(COc4nc(OC)c(CNC[C@@H](O)CC(=O)O)cc4C4CC4)c3C)c2C)c(C2CC2)cc1CNC[C@@H](O)CC(=O)O [Example 55, (3S,3′S)-4,4′-((((((2,2′-dimethyl-[1,1′-biphenyl]-3,3′-diyl)bis(methylene))bis(oxy))bis(5-cyclopropyl-2-methoxypyridine-6,3-diyl))bis(methylene))bis(azanediyl))bis(3-hydroxybutanoic acid)]	0.315 µM	1.52 µM
COc1nc(OCc2cccc(-c3cccc(COc4nc(OC)c(C[N+](C)(C)CC(=O)O)cc4Cl)c3C)c2C)c(Cl)cc1C[N+](C)(C)CC(=O)O [Example 78, 1,1′-((((2,2′-dimethyl-[1,1′-biphenyl]-3,3′-diyl)bis(methylene))bis(oxy))bis(5-chloro-2-methoxypyridine-6,3-diyl))bis(N-(carboxymethyl)-N,N-dimethylmethanaminium)]	0.187 µM	0.395 µM
Cc1c(COc2cc(OCc3cncc(C#N)c3)c(CNC[C@@H](O)CC(=O)O)cc2Cl)cccc1-c1cccc(-c2ccc(OCCNC[C@@H](O)CC(=O)O)c(C(F)(F)F)c2)c1C [Example 94, (S)-4-((4-((4″-(2-(((S)-3-carboxy-2-hydroxypropyl)amino)ethoxy)-2,2′-dimethyl-3″-(trifluoromethyl)-[1,1′:3′,1″-terphenyl]-3-yl)methoxy)-5-chloro-2-((5-cyanopyridin-3-yl)methoxy)benzyl)amino)-3-hydroxybutanoic acid]	0.228 µM	0.21 µM
COc1nc(OCc2cccc(-c3cccc(COc4nc(OC)c(CNCCCC(N)=O)cc4Br)c3C)c2C)c(Br)cc1CNCCCC(N)=O [Example 116, 4,4′-((((((2,2′-dimethyl-[1,1′-biphenyl]-3,3′-diyl)bis(methylene))bis(oxy))bis(5-bromo-2-methoxypyridine-6,3-diyl))bis(methylene))bis(azanediyl))dibutanamide]	0.134 µM	0.702 µM
COc1nc(OCc2cccc(-c3cccc(COc4nc(OC)c(CN(CCCC(N)=O)CC(=O)O)cc4Br)c3C)c2C)c(Br)cc1CNCCCC(N)=O [Example 118, N-(4-amino-4-oxobutyl)-N-((6-((3′-(((5-(((4-amino-4-oxobutyl)amino)methyl)-3-bromo-6-methoxypyridin-2-yl)oxy)methyl)-2,2′-dimethyl-[1,1′-biphenyl]-3-yl)methoxy)-5-bromo-2-methoxypyridin-3-yl)methyl)glycine]	0.169 µM	0.823 µM
Cc1c(COc2nc(OCc3cc(C#N)cc(C#N)c3)c(CNC[C@@H](O)CC(=O)O)cc2Cl)cccc1-c1cccc(COc2nc(OCc3cc(C#N)cc(C#N)c3)c(CNC[C@@H](O)CC(=O)O)cc2Cl)c1C [Example 122, (3S,3′S)-4,4′-((((((2,2′-dimethyl-[1,1′-biphenyl]-3,3′-diyl)bis(methylene))bis(oxy))bis(5-chloro-2-((3,5-dicyanobenzyl)oxy)pyridine-6,3-diyl))bis(methylene))bis(azanediyl))bis(3-hydroxybutanoic acid)]	0.192 µM	0.079 µM
Cc1c(COc2nc(OCC3CCO3)c(CNC[C@@H](O)CC(=O)O)cc2Br)cccc1-c1cccc(COc2nc(OCC3CCO3)c(CNC[C@@H](O)CC(=O)O)cc2Br)c1C (stereo partly drawn) [Example 131, (3S,3′S)-4,4′-((((((2,2′-dimethyl-[1,1′-biphenyl]-3,3′-diyl)bis(methylene))bis(oxy))bis(5-bromo-2-(oxetan-2-ylmethoxy)pyridine-6,3-diyl))bis(methylene))bis(azanediyl))bis(3-hydroxybutanoic acid)]	0.231 µM	0.964 µM
Cc1c(COc2nc(OCc3cc(C#N)ccn3)c(CNC[C@@H](O)CC(=O)O)cc2Br)cccc1-c1cccc(COc2nc(OCc3cc(C#N)ccn3)c(CNC[C@@H](O)CC(=O)O)cc2Br)c1C [Example 148, (3S,3′S)-4,4′-((((((2,2′-dimethyl-[1,1′-biphenyl]-3,3′-diyl)bis(methylene))bis(oxy))bis(5-bromo-2-((4-cyanopyridin-2-yl)methoxy)pyridine-6,3-diyl))bis(methylene))bis(azanediyl))bis(3-hydroxybutanoic acid)]	0.132 µM	0.124 µM
COCCCOc1nc(OCc2cccc(-c3cccc(COc4nc(OCCCOC)c(CNC[C@@H](O)CC(=O)O)cc4Br)c3C)c2C)c(Br)cc1CNC[C@@H](O)CC(=O)O [Example 149, (3S,3′S)-4,4′-((((((2,2′-dimethyl-[1,1′-biphenyl]-3,3′-diyl)bis(methylene))bis(oxy))bis(5-bromo-2-(3-methoxypropoxy)pyridine-6,3-diyl))bis(methylene))bis(azanediyl))bis(3-hydroxybutanoic acid)]	0.275 µM	0.668 µM
COc1nc(OCc2cccc(-c3cccc(COc4nc(OC)c(CNC[C@@H](F)C(=O)O)cc4Cl)c3C)c2C)c(Cl)cc1CNC[C@@H](F)C(=O)O [Example 179, (2R,2′R)-3,3′-((((((2,2′-dimethyl-[1,1′-biphenyl]-3,3′-diyl)bis(methylene))bis(oxy))bis(5-chloro-2-methoxypyridine-6,3-diyl))bis(methylene))bis(azanediyl))bis(2-fluoropropanoic acid)]	0.319 µM	0.655 µM

The next compounds have a lower EC50 [1] than those just listed; values first:

EC50 [1]	EC50 [2]	Structure (SMILES)
0.0832 µM	1.06 µM	COc1nc(OCc2cccc(-c3cccc(COc4nc(OC)c(CN(C)CC(=O)O)cc4Cl)c3C)c2C)c(Cl)cc1CN(C)CC(=O)O [Example 76, 2,2′-((((((2,2′-dimethyl-[1,1′-biphenyl]-3,3′-diyl)bis(methylene))bis(oxy))bis(5-chloro-2-methoxypyridine-6,3-diyl))bis(methylene))bis(methylazanediyl))diacetic acid]
0.0457 µM	0.129 µM	Cc1c(COc2cc(OCc3cncc(C#N)c3)c(CNC[C@@H](O)CC(=O)O)cc2Cl)cccc1-c1cccc(-c2ccc(OCCNC[C@@H](O)CC(=O)O)cc2F)c1C [Example 111, (S)-4-((4-((4″-(2-(((S)-3-carboxy-2-hydroxypropyl)amino)ethoxy)-2″-fluoro-2,2′-dimethyl-[1,1′:3′,1″-terphenyl]-3-yl)methoxy)-5-chloro-2-((5-cyanopyridin-3-yl)methoxy)benzyl)amino)-3-hydroxybutanoic acid]
0.112 µM	0.66 µM	CNC(=O)CCOc1nc(OCc2cccc(-c3cccc(COc4nc(OCCC(=O)NC)c(CNC[C@@H](O)CC(=O)O)cc4Cl)c3C)c2C)c(Cl)cc1CNC[C@@H](O)CC(=O)O [Example 134, (3S,3′S)-4,4′-((((((2,2′-dimethyl-[1,1′-biphenyl]-3,3′-diyl)bis(methylene))bis(oxy))bis(5-chloro-2-(3-(methylamino)-3-oxopropoxy)pyridine-6,3-diyl))bis(methylene))bis(azanediyl))bis(3-hydroxybutanoic acid)]
0.0636 µM	0.362 µM	Cc1c(COc2nc(OCCC(N)=O)c(CNC[C@@H](O)CC(=O)O)cc2Br)cccc1-c1cccc(COc2nc(OCCC(N)=O)c(CNC[C@@H](O)CC(=O)O)cc2Br)c1C [Example 145, (3S,3′S)-4,4′-((((((2,2′-dimethyl-[1,1′-biphenyl]-3,3′-diyl)bis(methylene))bis(oxy))bis(2-(3-amino-3-oxopropoxy)-5-bromopyridine-6,3-diyl))bis(methylene))bis(azanediyl))bis(3-hydroxybutanoic acid)]
0.0914 µM	0.439 µM	COc1nc(OCc2cccc(-c3cccc(COc4nc(OC)c(CN[C@H](C)[C@@H](O)CC(=O)O)cc4Cl)c3C)c2C)c(Cl)cc1CN[C@H](C)[C@@H](O)CC(=O)O [Example 182, (3S,3′S,4R,4′R)-4,4′-((((((2,2′-dimethyl-[1,1′-biphenyl]-3,3′-diyl)bis(methylene))bis(oxy))bis(5-chloro-2-methoxypyridine-6,3-diyl))bis(methylene))bis(azanediyl))bis(3-hydroxypentanoic acid)]
